Measurements: PMC7046733, “Plantaricin NC8 αβ exerts potent antimicrobial activity against Staphylococcus spp. and enhances the effects of antibiotics” (Scientific Reports, 2020)
Read-outs that look alike come from different tables or passages of the source. Residues, ends and D or L forms follow the SMILES beside them.

Legend:
[1] = tested on: S. epidermidis 154; assay: Broth microdilution MIC/MBC; format: cell-based; settings: antibiotic alone, 20 h
Protocol: (§1) The broth microdilution method was used to determine minimal inhibitory concentration (MIC) and minimal bactericidal concentration (MBC). Briefly, two-fold serial dilutions of the peptides were used and the final concentrations ranged between 0.097–50 µM. The final concentrations of the antibiotics vancomycin and teicoplanin ranged between 0.097–50 µg/ml, while rifampicin ranged between 0.0019–1 µg/ml and gentamicin 0.0097–5 µg/ml. The inhibitory and bactericidal effects of peptides together with antibiotics were studied by using the same concentration series of antibiotics with constant, sub-MIC concentrations, of the peptides in all the wells (see figure legends). The plates were then incubated at 37 °C for 20 h. […] MBC was determined as the lowest concentration where no growth of bacterial colonies (10 µl) was observed on blood-agar plates. All experiments were repeated at least three times. The combined effect of teicoplanin and PLNC8 αβ against S. epidermidis ATCC 12228 was evaluated by the microdilution checkerboard method. Briefly, two-fold serial dilutions of the antibiotics and PLNC8 αβ were prepared together in microtiter plates, either alone or in combination. The MIC values were determined visually and spectroscopically, and the fractional inhibitory concentration (ΣFIC) was calculated by the equation (MIC of PLNC8 αβ in combination/MIC of PLNC8 αβ alone) + (MIC of antibiotic in combination/MIC of antibiotic alone). Synergy was defined as ΣFIC ≤ 0.5, additive when 0.5 <ΣFIC ≤1, indifferent when 1 <ΣFIC <2 and antagonistic when ΣFIC ≥ 2.

[2] = tested on: S. epidermidis ATCC 12228; assay: microbe, parasite or virus in culture; settings: Staphylococcus epidermidis, ATCC12228, 20 h
Protocol: as §1

[3] = tested on: human erythrocytes; assay: Haemolysis; format: cell-based; settings: isolated human erythrocytes, 1 h, 37 °C, n=3
Protocol: The haemolytic activity of the peptides was investigated by collecting blood from healthy volunteers in heparinized vacutainers. Briefly, the blood was centrifuged at 600 × g for 5 min and the erythrocyte pellet was washed three times in PBS. The cells were then suspended in PBS and added to 96-well plates (15% erythrocyte suspension/well), containing the peptides with two-fold serial dilution. The plates were incubated for 1 h at 37 °C followed by centrifugation for 5 min at 900 × g and measurement of the supernatants at 540 nm. Haemolytic activity (%) was calculated by subtracting the negative control from all values and normalization against the positive control (0.5% Triton X-100), that was set to 100%. All experiments, each in duplicate, were repeated three times.

[4] = Staphylococcus epidermidis, 154, 20 h, read-out: MBC

SMILES	MBC [1, 4] [µg/mL]	MBC [2] [µg/mL]	MIC [2] [µg/mL]	cytotoxic at relevant concentrations (<50 µM), determined by haemolytic activity [3]	also measured
CNC(C)C1CCC(N)C(OC2C(N)CC(N)C(OC3OCC(C)(O)C(NC)C3O)C2O)O1 (stereo not drawn) [Gentamicin, gentamicin]	> 100	0.31	0.31	–	MIC ([1]; Staphylococcus epidermidis, 154, 20 h, read-out: MIC): > 100 µg/mL
CO[C@H]1/C=C/O[C@@]2(C)Oc3c(C)c(O)c4c(O)c(c(/C=N/N5CCN(C)CC5)c(O)c4c3C2=O)NC(=O)/C(C)=C\C=C\[C@H](C)[C@H](O)[C@@H](C)[C@@H](O)[C@@H](C)[C@H](OC(C)=O)[C@@H]1C [Rifampicin, rifampicin]	0.05	0.063	0.063	–	MBC [1]: 0.063 µg/mL
CC(C)C[C@H](NC(=O)[C@H](Cc1ccc(O)cc1)NC(=O)[C@H](Cc1ccc(O)cc1)NC(=O)CNC(=O)[C@H](Cc1c[nH]c2ccccc12)NC(=O)[C@H](CO)NC(=O)[C@H](CO)NC(=O)[C@H](Cc1c[nH]c2ccccc12)NC(=O)[C@H](CC(C)C)NC(=O)[C@H](CCCCN)NC(=O)[C@@H](NC(=O)[C@@H](NC(=O)[C@H](CC(C)C)NC(=O)[C@@H](N)CC(=O)O)[C@@H](C)O)[C@@H](C)O)C(=O)NCC(=O)O [α1-15] (H-DLTTKLWSSWGYYLG-OH)	–	–	–	nor the truncated α1–22, α1–15, β7–34, β7–20 and β1–20 were cytotoxic	–
CC(C)C[C@H](NC(=O)[C@H](CC(N)=O)NC(=O)[C@H](Cc1c[nH]c2ccccc12)NC(=O)[C@H](CCCNC(=N)N)NC(=O)[C@H](C)NC(=O)[C@H](CCCCN)NC(=O)[C@H](CCCCN)NC(=O)CNC(=O)[C@H](CC(C)C)NC(=O)[C@H](Cc1ccc(O)cc1)NC(=O)[C@H](Cc1ccc(O)cc1)NC(=O)CNC(=O)[C@H](Cc1c[nH]c2ccccc12)NC(=O)[C@H](CO)NC(=O)[C@H](CO)NC(=O)[C@H](Cc1c[nH]c2ccccc12)NC(=O)[C@H](CC(C)C)NC(=O)[C@H](CCCCN)NC(=O)[C@@H](NC(=O)[C@@H](NC(=O)[C@H](CC(C)C)NC(=O)[C@@H](N)CC(=O)O)[C@@H](C)O)[C@@H](C)O)C(=O)O [α1-22] (H-DLTTKLWSSWGYYLGKKARWNL-OH)	–	–	–	nor the truncated α1–22, α1–15, β7–34, β7–20 and β1–20 were cytotoxic	–
CC[C@H](C)[C@H](NC(=O)CNC(=O)[C@H](CC(C)C)NC(=O)[C@@H](NC(=O)[C@H](Cc1ccc(O)cc1)NC(=O)[C@@H](NC(=O)[C@H](CO)NC(=O)[C@@H](NC(=O)[C@@H]1CCCN1C(=O)[C@@H](NC(=O)[C@@H](N)CO)C(C)C)[C@@H](C)O)C(C)C)[C@@H](C)O)C(=O)N[C@@H](CCCCN)C(=O)N[C@H](C(=O)N[C@@H](CC(C)C)C(=O)N[C@@H](Cc1c[nH]c2ccccc12)C(=O)N[C@@H](CO)C(=O)N[C@@H](C)C(=O)N[C@@H](Cc1ccc(O)cc1)C(=O)N[C@@H](CCCCN)C(=O)N[C@@H](Cc1c[nH]cn1)C(=O)O)[C@@H](C)CC [β1-20] (H-SVPTSVYTLGIKILWSAYKH-OH)	–	–	–	nor the truncated α1–22, α1–15, β7–34, β7–20 and β1–20 were cytotoxic	–
CC[C@H](C)[C@H](NC(=O)CNC(=O)[C@H](CC(C)C)NC(=O)[C@@H](NC(=O)[C@@H](N)Cc1ccc(O)cc1)[C@@H](C)O)C(=O)N[C@@H](CCCCN)C(=O)N[C@H](C(=O)N[C@@H](CC(C)C)C(=O)N[C@@H](Cc1c[nH]c2ccccc12)C(=O)N[C@@H](CO)C(=O)N[C@@H](C)C(=O)N[C@@H](Cc1ccc(O)cc1)C(=O)N[C@@H](CCCCN)C(=O)N[C@@H](Cc1c[nH]cn1)C(=O)O)[C@@H](C)CC [β7-20] (H-YTLGIKILWSAYKH-OH)	–	–	–	nor the truncated α1–22, α1–15, β7–34, β7–20 and β1–20 were cytotoxic	–
